Assay results: US20220127232A1, “HISTONE ACETYLTRANSFERASE MODULATORS AND COMPOSITIONS AND USES THEREOF” (The Trustees of Columbia University in the City of New York, priority 2019, published 2022)
pEC50: −log10 of the molar value. Counter-ions that a name gives are not always drawn. Like-named read-outs stand apart in the source and are kept apart here.

How the values were obtained:
p300 = p300 (Homo sapiens, UniProt Q09472); experiment: Histone Acetyltransferase (HAT) in vitro acetylation assay, western blot of H3K27ac / H3K18ac; format: biochemical; settings: for H3-Lys 18 EC50 / H3-Lys 27 EC50 / pEC50: EC50 for activators; for H3-Lys 18 IC50 / H3-Lys 27 IC50: IC50 for inhibitors
Protocol: The aim of the in vitro acetylation assay is to measure the enzymatic activity of the various compounds towards p300.
First, the drug is prepared:
Second, dilute p300 in AM1 buffer to a concentration of 40 ng/μL (final concentration in the reaction 20 ng/μL). This is accomplished by diluting 1 μL of p300 (at 0.4 μg/μL) into […] of AM1 buffer.
Third, prepare the Master Mix. Prepare the Master Mix in low protein binding tubes (ThermoFisher Cat. No. 90410), 20 μL system.
Incubate reactions at 30° C. for 30 minutes.
Incubate reactions at 30° C. for 1 hour.
Fourth, perform the western blot assay. • Add 6.7 μL of Laemmli Sample Buffer 4× (Bio-Rad Laboratories Cat. No. 161-0737) for each reaction and boil samples at 95° C. for 5 min. • Charge 10 μL for each sample in 2 Tris Glycine 4-15% gels (Bio-Rad Laboratories Cat. No. 456-1086). Running Buffer: Tris-Glycine 1× (pour in the cell up to the writing “2 gels”). • Run at 90 V for 1 hour (until the gel front reaches the green line of cell). • Semi-dry transfer with Trans-Blot® Turbo™ Blotting System from Bio-Rad Laboratories (Trans-Blot® Turbo™ RTA midi PVDF transfer kit Cat. No1704275). • Activate PVDF membrane in methanol for 5 minutes and then wet in Trans-Blot® Turbo™ transfer buffer. • Wet stacks in transfer buffer. • Transfer at 23 V 1.3 A for 7 minutes. • Blocking buffer: 5% Non-Fat milk in TBST (tween 0.1%) 1 hour at room temperature. • Cut the membranes to get Ac-His 3 at 17 kDa and p300 at 300 kDa. • Incubate with primary antibodies overnight at 4° C. • The day after, make 3 washes in TBST (Tween 0.1%) of 10 minutes. • Incubate with secondary antibody at room temperature for 1 hour. • Make 3 washes in TBST (Tween 0.1%) of 5 minutes. • Incubate membranes with ECL (SuperSignal West Dura Extended Duration Substrate from ThermoFisher) for 5 minutes at room temperature. • Acquire the image with ChemiDoc Odyssey Fc 2 minutes.
To detect total H3 (loading control), strip the membranes with Restore™ Western Blot Stripping Buffer according to the manufacturer protocol.
Various compounds were tested for enzymatic activity with respect to Lys 18 and Lys 27. EC50 is indicated for Activators and IC50 for inhibitors respectively.
FIGS. 1A to 25B are graphs showing the lysine residue acetylation as a function of concentration for the compounds set forth in Table 3. The shaded area corresponds to the average values of lysine residue acetylation (continuous line) and their standard error range measured in the absence of compound and DMSO. The number of replicates is represented by “n”.

[1] = Stability in human liver microsomes; format: in vitro ADME; settings: for microsomal CLint at 1 μM / half-life at 1 μM: both sexes, human, liver microsomes, pH 7.4, human liver microsomes
Protocol: Some compounds were tested for stability in human liver microsomes as shown below in Table 2.
Mixed-gender human liver microsomes (Lot #1010420) were purchased from XenoTech. The reaction mixture, minus NADPH, was prepared as described below. The test article was added into the reaction mixture at a final concentration of 1 μM. The control compound, testosterone, was run simultaneously with the test article in a separate reaction. An aliquot of the reaction mixture (without cofactor) was equilibrated in a shaking water bath at 37° C. for 3 minutes. The reaction was initiated by the addition of the cofactor, and the mixture was incubated in a shaking water bath at 37° C. Aliquots (100 μL) were withdrawn at 0, 10, 20, 30, and 60 minutes. Test article and testosterone samples were immediately combined with 400 μL of ice-cold 50/50 acetonitrile (ACN)/H2O containing 0.1% formic acid and internal standard to terminate the reaction. The samples were then mixed and centrifuged to precipitate proteins. All samples were assayed by LC-MS/MS using electrospray ionization. Analytical conditions are outlined in Appendix 1. The peak area response ratio (PARR) to internal standard was compared to the PARR at time 0 to determine the percent remaining at each time point. Half-lives and clearance were calculated using GraphPad software, fitting to a single-phase exponential decay equation.
Liver Microsomes 0.5 mg/mL NADPH (cofactor) 1 mM
Potassium Phosphate, pH 7.4 100 mM
Intrinsic clearance (CLint) was calculated based on CLint=k/P, where k is the elimination constant and P is the protein concentration in the incubation.

[2] = compound in DMSO, read-out: H3-Lys 18 EC50
[3] = compound in DMSO, read-out: H3-Lys 27 EC50

p300, sequence (Q09472 whole entry, species assumed): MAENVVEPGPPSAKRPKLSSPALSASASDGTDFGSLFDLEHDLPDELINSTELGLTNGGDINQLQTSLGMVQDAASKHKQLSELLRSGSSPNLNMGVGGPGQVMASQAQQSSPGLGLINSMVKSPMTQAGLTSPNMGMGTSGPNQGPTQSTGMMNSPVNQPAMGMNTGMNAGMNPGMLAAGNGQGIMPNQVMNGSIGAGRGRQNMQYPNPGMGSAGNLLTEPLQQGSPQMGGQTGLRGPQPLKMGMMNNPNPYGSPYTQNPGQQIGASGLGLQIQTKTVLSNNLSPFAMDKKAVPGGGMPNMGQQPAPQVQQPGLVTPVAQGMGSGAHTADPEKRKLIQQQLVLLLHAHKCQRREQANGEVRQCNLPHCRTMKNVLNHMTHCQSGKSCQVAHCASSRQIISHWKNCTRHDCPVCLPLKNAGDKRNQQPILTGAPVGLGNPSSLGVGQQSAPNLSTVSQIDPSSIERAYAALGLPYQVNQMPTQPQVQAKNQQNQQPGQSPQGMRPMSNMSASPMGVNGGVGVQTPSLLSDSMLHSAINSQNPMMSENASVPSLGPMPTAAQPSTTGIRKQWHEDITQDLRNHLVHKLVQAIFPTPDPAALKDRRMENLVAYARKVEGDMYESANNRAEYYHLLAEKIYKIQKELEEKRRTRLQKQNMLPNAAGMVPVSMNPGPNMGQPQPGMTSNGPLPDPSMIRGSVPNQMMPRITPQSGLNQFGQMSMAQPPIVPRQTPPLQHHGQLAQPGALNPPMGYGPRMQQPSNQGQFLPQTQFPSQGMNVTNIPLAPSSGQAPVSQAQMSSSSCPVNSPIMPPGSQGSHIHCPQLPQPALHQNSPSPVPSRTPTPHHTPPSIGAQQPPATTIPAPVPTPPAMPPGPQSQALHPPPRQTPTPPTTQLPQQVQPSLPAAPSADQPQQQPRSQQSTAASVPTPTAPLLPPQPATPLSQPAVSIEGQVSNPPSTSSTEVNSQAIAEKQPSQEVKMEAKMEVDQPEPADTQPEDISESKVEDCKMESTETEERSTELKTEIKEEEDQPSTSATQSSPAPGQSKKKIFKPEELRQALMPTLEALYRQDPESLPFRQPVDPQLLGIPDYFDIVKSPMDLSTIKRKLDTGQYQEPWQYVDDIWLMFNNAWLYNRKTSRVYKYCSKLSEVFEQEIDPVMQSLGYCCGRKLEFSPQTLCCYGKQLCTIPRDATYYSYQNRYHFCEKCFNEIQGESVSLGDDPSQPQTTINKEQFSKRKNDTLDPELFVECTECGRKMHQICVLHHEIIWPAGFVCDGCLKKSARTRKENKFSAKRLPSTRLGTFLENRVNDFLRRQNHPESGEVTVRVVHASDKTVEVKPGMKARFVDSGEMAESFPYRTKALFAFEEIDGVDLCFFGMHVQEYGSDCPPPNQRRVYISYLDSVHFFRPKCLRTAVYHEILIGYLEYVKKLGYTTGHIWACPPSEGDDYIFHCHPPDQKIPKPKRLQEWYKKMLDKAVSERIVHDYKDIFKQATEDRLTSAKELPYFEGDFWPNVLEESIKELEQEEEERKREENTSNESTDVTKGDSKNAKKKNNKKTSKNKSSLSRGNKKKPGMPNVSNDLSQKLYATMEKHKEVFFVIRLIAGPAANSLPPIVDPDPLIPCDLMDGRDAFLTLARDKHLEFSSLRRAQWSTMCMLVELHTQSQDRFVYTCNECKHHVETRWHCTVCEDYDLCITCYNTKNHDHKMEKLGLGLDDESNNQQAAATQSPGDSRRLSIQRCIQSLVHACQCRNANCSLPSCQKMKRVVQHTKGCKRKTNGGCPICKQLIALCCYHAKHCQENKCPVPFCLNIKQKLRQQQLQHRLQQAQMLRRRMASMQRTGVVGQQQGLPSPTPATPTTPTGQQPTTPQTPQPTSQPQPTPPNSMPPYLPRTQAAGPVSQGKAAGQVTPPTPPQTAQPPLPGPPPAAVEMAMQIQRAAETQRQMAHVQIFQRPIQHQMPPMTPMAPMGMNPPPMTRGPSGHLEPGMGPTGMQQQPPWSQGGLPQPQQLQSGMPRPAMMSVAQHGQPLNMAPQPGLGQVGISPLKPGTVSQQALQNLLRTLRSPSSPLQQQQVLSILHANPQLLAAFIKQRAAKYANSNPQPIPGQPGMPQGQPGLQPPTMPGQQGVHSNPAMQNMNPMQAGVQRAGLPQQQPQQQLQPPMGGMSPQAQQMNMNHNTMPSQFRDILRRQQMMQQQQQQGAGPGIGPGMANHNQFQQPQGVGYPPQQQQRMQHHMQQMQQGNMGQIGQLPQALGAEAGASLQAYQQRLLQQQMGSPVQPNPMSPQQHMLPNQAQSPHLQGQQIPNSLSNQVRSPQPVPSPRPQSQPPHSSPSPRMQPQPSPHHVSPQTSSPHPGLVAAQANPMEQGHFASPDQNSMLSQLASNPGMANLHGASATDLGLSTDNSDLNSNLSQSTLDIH

Compound | H3-Lys 18 EC50 (p300; compound in DMSO) | H3-Lys 27 EC50 (p300; compound in DMSO) | H3-Lys 18 IC50 (p300; compound in DMSO) | H3-Lys 27 IC50 (p300; compound in DMSO) | other results
CN(C)CCOc1cccc(F)c1C(=O)Nc1ccc(Cl)c(C(F)(F)F)c1 [RA010162] | NO ACTIVITY | NO ACTIVITY | NO ACTIVITY | NO ACTIVITY | –
CCOc1cccc(N(C)CCN(C)C)c1C(=O)Nc1ccc(Cl)c(C(F)(F)F)c1 [RA010163] | NO ACTIVITY | NO ACTIVITY | NO ACTIVITY | NO ACTIVITY | –
CCOc1cccc(OCCN(C)C)c1C(=O)Nc1cccc(C(F)(F)F)c1 [RA013928] | NO ACTIVITY | – | NO ACTIVITY | – | –
CCOc1ccccc1C(=O)N(CCN(C)C)c1ccc(Cl)c(C(F)(F)F)c1 [RA013886] | NO ACTIVITY | NO ACTIVITY | NO ACTIVITY | NO ACTIVITY | –
CCOc1cccc(O)c1C(=O)Nc1cccc(C(F)(F)F)c1 [RA010160] | – | – | – | – | pEC50 (p300; [2]): 6.84; pEC50 (p300; [3]): 6.27
CCOc1cccc(OCC)c1C(=O)Nc1ccc(Cl)c(C(F)(F)F)c1 [RA010171] | – | – | – | – | pEC50 (p300; [2]): 6.85
CC(C)Oc1cccc(OCCN(C)C)c1C(=O)Nc1ccc(Cl)c(C(F)(F)F)c1 [RA010143 HCl] | – | NO ACTIVITY | – | NO ACTIVITY | –
CCOc1cccc(OCCO)c1C(=O)Nc1ccc(Cl)c(C(F)(F)F)c1 [RA010146] | NO ACTIVITY | NO ACTIVITY | NO ACTIVITY | NO ACTIVITY | –
CN(C)CCOc1cccc(O)c1C(=O)Nc1ccc(Cl)c(C(F)(F)F)c1 [RA013905] | NO ACTIVITY | NO ACTIVITY | NO ACTIVITY | NO ACTIVITY | –
CCOc1ccnc(OCCN(C)C)c1C(=O)Nc1ccc(Cl)c(C(F)(F)F)c1 [RA013005] | – | – | – | – | pEC50 (p300; [2]): 7.12; pEC50 (p300; [3]): 6.23; microsomal CLint at 1 μM ([1]; calculated value printed in parentheses behind the bound, read-out: CLint, value in parentheses): 188 µL/min/mg; half-life at 1 μM ([1]; fitted value printed in parentheses behind the bound, read-out: Half-life, value in parentheses): 7.36 min; microsomal CLint at 1 μM ([1]; read-out: CLint): > 139 µL/min/mg; half-life at 1 μM ([1]; read-out: Half-life): < 10 min; % Remaining of Initial (n = 1) 0 min ([1]; human liver microsomes, test article 1 μM, 0 min): 100%; % Remaining of Initial (n = 1) 10 min ([1]; human liver microsomes, test article 1 μM, 10 min): 40.5%; % Remaining of Initial (n = 1) 20 min ([1]; human liver microsomes, test article 1 μM, 20 min): 14.1%; % Remaining of Initial (n = 1) 30 min ([1]; human liver microsomes, test article 1 μM, 30 min): 4.97%; % Remaining of Initial (n = 1) 60 min ([1]; human liver microsomes, test article 1 μM, 60 min): <1.00%
COc1cccc(OCCN(C)C)c1C(=O)Nc1ccc(Cl)c(C(F)(F)F)c1 [RA010900 HCl] | NO ACTIVITY | NO ACTIVITY | NO ACTIVITY | NO ACTIVITY | pEC50 (p300; compound in H2O, read-out: H3-Lys 18 EC50): 6.93; pEC50 (p300; compound in H2O, read-out: H3-Lys 27 EC50): 7.36
CCOc1cccc(OCCN(C)C)c1C(=O)Nc1ccc(Cl)cn1 [RA013917] | NO ACTIVITY | – | – | – | pEC50 (p300; [3]): 7.80
CCCOc1cccc(O)c1C(=O)Nc1ccc(Cl)c(C(F)(F)F)c1 [RA013931] | NO ACTIVITY | NO ACTIVITY | NO ACTIVITY | NO ACTIVITY | –
CCOc1cccc(OCCOC)c1C(=O)Nc1ccc(Cl)c(C(F)(F)F)c1 [RA010155] | – | NO ACTIVITY | – | NO ACTIVITY | pEC50 (p300; [2]): 6.89
CCOc1cccc(OCCN(C)C)c1C(=O)Nc1cccc(C(F)(F)F)c1 [RA010168] | – | NO ACTIVITY | – | NO ACTIVITY | –
CCOc1cccc(OCCN(C)C)c1-c1nc2cc(Cl)c(C(F)(F)F)cc2[nH]1 [RA013012] | NO ACTIVITY | NO ACTIVITY | NO ACTIVITY | NO ACTIVITY | –
CCOc1cccc(OCCN(C)C)c1NC(=O)c1ccc(Cl)c(C(F)(F)F)c1 [RA013919] | – | NO ACTIVITY | – | NO ACTIVITY | –
CCCOc1cccc(OCCN(C)C)c1C(=O)Nc1ccc(Cl)c(C(F)(F)F)c1 [RA013938] | NO ACTIVITY | NO ACTIVITY | NO ACTIVITY | NO ACTIVITY | –
CCOc1cccc(OCCNC)c1C(=O)Nc1ccc(Cl)c(C(F)(F)F)c1 [RA013894] | NO ACTIVITY | NO ACTIVITY | NO ACTIVITY | NO ACTIVITY | –
